Key:
potassium arsenate = compound: O=[As]([O-])(O)O.[K+] [potassium arsenate]; assay: thermal stability z-score vs DMSO; higher = more thermally stabilized by treatment; conditions: HeLa; arsenate concentration 1 mM
Description: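 Cellular thermal proteome profiling in HeLa cells treated with 1 mM arsenate for 1 h (DMSO pretreatment), heated to ten temperatures (37-66.3 °C). Soluble protein was quantified by TMT mass spectrometry relative to DMSO controls; the thermal stability score was transformed to a z-score; mean of n = 3 experiments.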

lipoamide = compound: NC(=O)CCCCC1CCSS1 [lipoamide]; assay: as above; conditions: HeLa, lipoamide concentration 100 µM
Description: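 Cellular thermal proteome profiling in HeLa cells. Cells were treated with 100 µM lipoamide for 1 h, with or without 1 mM arsenate for a further 1 h, then heated to ten temperatures (37-66.3 °C), and soluble protein was quantified by TMT mass spectrometry relative to 0.1% DMSO controls. The thermal stability score (sum of log2 fold changes minus the abundance score) was transformed to a z-score; mean of n = 3 experiments.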

[1] = arsenate co-treatment: 1 mM arsenate 1 h
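Note: each temperature applied for 3 min, abundance score taken as mean log2 fold change at the two lowest temperatures, z-score obtained by mean subtraction and division by SD.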

Sequence of UniProt Q8TCD5 (Q8TCD5 whole entry): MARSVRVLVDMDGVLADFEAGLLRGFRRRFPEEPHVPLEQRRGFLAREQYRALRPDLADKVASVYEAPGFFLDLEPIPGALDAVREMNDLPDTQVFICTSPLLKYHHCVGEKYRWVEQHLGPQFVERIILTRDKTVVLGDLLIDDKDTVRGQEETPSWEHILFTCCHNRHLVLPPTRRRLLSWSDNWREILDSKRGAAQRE
Sequence of UniProt O95758 (O95758 whole entry): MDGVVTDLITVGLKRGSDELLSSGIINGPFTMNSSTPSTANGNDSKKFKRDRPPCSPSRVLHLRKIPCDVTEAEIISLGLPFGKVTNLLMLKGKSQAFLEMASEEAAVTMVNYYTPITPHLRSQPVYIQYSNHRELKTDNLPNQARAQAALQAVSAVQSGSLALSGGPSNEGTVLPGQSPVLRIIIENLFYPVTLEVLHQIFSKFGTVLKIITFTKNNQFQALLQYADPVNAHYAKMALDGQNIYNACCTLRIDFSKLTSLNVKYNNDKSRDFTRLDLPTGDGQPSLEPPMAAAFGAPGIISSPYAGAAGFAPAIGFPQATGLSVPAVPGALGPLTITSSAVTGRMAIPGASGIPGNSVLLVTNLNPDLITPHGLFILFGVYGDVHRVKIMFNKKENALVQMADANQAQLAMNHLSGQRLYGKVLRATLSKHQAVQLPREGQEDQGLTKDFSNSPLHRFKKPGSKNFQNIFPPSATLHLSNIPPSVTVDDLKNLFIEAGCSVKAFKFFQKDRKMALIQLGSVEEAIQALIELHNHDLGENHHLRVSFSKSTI
Sequence of UniProt O43164 (O43164 whole entry): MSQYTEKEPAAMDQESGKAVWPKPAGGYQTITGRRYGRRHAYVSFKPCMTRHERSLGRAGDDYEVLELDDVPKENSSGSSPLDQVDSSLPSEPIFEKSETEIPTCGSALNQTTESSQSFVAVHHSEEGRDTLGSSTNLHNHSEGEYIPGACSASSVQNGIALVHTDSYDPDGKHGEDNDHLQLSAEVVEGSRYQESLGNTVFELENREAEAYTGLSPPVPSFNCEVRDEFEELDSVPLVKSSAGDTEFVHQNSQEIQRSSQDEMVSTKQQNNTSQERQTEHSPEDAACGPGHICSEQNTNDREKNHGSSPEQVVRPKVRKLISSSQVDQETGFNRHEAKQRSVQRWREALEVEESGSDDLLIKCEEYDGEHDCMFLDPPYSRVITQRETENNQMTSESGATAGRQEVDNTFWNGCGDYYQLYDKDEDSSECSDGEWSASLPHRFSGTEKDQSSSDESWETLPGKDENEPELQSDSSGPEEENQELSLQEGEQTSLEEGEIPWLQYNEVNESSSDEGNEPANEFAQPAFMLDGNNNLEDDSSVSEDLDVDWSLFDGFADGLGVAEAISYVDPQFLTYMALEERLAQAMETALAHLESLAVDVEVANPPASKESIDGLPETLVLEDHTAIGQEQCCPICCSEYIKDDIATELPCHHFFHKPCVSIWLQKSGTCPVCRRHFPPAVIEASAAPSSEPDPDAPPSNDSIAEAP
Sequence of UniProt P78318 (P78318 whole entry): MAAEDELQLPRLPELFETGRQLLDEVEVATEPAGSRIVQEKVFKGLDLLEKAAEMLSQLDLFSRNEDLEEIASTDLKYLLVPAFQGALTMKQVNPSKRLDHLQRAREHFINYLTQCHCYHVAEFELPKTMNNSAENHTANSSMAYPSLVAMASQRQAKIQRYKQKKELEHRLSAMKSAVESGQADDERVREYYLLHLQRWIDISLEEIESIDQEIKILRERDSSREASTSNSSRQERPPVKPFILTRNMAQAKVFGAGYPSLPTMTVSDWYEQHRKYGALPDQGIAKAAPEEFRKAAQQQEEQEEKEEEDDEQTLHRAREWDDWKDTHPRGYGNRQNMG
Sequence of UniProt Q5TAX3 (Q5TAX3 whole entry): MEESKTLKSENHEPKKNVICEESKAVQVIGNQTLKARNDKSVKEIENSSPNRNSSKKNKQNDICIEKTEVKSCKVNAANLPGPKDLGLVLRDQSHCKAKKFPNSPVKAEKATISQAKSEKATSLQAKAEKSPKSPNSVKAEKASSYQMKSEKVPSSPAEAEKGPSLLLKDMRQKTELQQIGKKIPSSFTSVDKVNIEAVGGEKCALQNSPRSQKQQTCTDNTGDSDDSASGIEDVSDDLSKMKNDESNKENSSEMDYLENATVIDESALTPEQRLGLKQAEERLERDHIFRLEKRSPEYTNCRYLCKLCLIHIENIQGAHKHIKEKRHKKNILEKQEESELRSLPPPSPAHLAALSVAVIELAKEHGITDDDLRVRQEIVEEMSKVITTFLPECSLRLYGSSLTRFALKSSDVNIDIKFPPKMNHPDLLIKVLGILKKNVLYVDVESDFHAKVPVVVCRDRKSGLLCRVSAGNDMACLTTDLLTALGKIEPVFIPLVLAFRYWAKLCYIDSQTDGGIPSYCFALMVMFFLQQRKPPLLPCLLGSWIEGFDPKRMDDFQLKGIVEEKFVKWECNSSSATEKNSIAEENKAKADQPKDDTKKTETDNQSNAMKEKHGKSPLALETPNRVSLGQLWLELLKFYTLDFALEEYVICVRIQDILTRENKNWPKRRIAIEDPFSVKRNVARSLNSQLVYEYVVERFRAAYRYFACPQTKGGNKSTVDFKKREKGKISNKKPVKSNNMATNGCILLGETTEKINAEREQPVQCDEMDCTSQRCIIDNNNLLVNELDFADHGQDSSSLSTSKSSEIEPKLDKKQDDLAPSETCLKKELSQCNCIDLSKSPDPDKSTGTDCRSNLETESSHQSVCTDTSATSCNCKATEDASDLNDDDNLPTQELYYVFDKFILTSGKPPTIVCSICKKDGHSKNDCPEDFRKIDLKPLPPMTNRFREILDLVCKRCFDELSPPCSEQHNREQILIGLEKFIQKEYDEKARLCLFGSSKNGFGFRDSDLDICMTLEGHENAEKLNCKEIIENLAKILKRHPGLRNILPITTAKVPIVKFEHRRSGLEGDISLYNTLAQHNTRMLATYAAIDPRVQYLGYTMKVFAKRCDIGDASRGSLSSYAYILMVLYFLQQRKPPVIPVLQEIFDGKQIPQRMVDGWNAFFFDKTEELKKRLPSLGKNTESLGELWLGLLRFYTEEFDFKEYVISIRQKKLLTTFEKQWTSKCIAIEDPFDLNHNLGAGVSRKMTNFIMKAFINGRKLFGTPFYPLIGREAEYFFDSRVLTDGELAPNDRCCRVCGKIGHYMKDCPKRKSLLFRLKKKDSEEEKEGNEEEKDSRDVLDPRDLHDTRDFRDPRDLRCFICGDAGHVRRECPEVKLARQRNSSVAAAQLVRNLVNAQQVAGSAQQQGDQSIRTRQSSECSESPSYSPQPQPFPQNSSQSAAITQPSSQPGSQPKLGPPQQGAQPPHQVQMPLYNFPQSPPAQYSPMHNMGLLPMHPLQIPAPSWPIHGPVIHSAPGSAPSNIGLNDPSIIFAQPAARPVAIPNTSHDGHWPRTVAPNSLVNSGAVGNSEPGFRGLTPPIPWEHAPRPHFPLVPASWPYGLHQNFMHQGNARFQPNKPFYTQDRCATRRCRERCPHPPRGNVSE
Sequence of UniProt P15408 (P15408 whole entry): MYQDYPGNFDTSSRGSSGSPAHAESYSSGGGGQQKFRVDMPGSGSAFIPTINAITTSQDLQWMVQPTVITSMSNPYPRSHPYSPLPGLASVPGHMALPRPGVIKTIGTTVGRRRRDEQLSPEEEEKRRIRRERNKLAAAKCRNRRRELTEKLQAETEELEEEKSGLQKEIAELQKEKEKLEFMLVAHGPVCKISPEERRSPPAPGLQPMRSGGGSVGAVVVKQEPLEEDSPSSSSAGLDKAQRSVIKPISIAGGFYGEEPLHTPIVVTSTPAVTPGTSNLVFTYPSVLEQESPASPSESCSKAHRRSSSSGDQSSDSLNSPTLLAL
Sequence of UniProt Q96Q45 (Q96Q45 whole entry): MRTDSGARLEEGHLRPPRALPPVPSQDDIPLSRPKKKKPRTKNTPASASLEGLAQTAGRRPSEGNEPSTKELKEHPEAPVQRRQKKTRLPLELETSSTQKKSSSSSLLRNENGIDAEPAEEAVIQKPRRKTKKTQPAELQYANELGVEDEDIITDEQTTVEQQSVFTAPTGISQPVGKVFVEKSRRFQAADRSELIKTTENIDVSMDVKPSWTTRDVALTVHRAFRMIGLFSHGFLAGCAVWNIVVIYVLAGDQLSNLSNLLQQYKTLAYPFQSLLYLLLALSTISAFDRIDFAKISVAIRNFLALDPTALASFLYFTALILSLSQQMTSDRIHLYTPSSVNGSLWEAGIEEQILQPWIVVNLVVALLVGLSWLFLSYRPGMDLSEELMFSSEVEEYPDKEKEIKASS
Sequence of UniProt Q13418 (Q13418 whole entry): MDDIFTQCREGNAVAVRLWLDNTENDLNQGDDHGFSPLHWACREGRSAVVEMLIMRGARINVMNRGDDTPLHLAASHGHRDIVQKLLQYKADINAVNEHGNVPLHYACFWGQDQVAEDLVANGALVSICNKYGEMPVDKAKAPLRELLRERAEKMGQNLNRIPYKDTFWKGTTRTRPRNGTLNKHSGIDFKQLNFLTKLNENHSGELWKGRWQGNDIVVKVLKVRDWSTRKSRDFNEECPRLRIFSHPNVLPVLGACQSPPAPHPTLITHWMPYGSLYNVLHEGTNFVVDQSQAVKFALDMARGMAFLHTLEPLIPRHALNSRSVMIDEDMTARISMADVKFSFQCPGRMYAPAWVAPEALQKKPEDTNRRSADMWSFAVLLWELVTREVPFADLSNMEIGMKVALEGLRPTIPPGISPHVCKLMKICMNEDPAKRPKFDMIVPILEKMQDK
Sequence of UniProt O95881 (O95881 whole entry): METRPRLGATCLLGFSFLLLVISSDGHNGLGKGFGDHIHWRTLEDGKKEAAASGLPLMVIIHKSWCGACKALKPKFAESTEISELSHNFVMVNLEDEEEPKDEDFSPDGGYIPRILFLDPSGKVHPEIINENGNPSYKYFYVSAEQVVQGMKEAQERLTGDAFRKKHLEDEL
Sequence of UniProt Q9Y3L5 (Q9Y3L5 whole entry): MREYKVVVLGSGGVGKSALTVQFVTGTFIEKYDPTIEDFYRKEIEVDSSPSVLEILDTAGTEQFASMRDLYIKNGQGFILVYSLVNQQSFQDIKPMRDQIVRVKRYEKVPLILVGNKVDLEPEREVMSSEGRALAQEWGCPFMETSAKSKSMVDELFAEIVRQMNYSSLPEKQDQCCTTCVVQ

Target	thermal stability z-score (potassium arsenate)	thermal stability z-score (lipoamide; [1])	thermal stability z-score (lipoamide; arsenate co-treatment: none)
HIST1H1B (UniProt P16401)	1.19	1.01	0.679
MTMR9 (UniProt Q96QG7)	-0.12	-0.0303	1.35
ZCCHC11 (UniProt Q5TAX3)	-0.424	-0.38	-0.287
DHRSX (UniProt Q8N5I4)	-0.643	0.396	0.418
NT5C (UniProt Q8TCD5)	-0.982	-0.442	-0.516
DLGAP5 (UniProt Q15398)	-0.0873	-0.352	-0.378
EZR (UniProt P15311)	-0.481	1.01	0.661
DAP3 (UniProt P51398)	0.132	-0.597	-0.135
NUP214 (UniProt P35658)	0.815	-0.0103	-0.132
ACTR5 (UniProt Q9H9F9)	-0.0841	-0.0353	-0.0633
PAXBP1 (UniProt Q9Y5B6)	0.0461	0.125	0.182
PJA2 (UniProt O43164)	-3.43	-0.202	-0.163
IGBP1 (UniProt P78318)	-0.613	0.172	0.441
DNAJC8 (UniProt O75937)	1.25	0.653	0.49
TXNDC12 (UniProt O95881)	0.744	-1.11	-1.37
RAP2C (UniProt Q9Y3L5)	0.21	1.35	0.676
ASAP1 (UniProt Q9ULH1)	-0.0654	0.0666	-0.0222
NANP (UniProt Q8TBE9)	-0.582	0.191	0.0578
SH3D19 (UniProt Q5HYK7)	0.228	0.277	0.225
TTC37 (UniProt Q6PGP7)	-0.0411	-0.601	-0.234
PI4KB (UniProt Q9UBF8)	0.692	-0.62	0.386
TAB1 (UniProt Q15750)	-0.294	-0.188	-0.291
PTBP3 (UniProt O95758)	-0.772	-0.713	0.0298
TMEM237 (UniProt Q96Q45)	-1.23	0.0486	0.457
FOSL2 (UniProt P15408)	-2.25	1.86	0.702
IFT140 (UniProt Q96RY7)	0.083	-0.182	-0.038
ZMYM3 (UniProt Q14202)	-1.2	0.69	0.308
FHL1 (UniProt Q13642)	-0.17	0.358	0.294
ILK (UniProt Q13418)	0.129	0.201	-0.00153
REL (UniProt Q04864)	0.22	-0.801	0.147

Reference: the supplement of paper PMC12463676, “Small-molecule dissolution of stress granules by redox modulation benefits ALS models” (Nature Chemical Biology, 2025)
